From patent US5106835A, “Renin inhibitors” (American Cyanamid Company, priority 1990, dated 1992)
pIC50: −log10 of the molar value.

Target: T1, human kidney renin (Homo sapiens, UniProt P00797)
T1 construct: Human renin was prepared from human kidney; from tissue; host or cells: human kidney
T1 sequence (P00797 67-406): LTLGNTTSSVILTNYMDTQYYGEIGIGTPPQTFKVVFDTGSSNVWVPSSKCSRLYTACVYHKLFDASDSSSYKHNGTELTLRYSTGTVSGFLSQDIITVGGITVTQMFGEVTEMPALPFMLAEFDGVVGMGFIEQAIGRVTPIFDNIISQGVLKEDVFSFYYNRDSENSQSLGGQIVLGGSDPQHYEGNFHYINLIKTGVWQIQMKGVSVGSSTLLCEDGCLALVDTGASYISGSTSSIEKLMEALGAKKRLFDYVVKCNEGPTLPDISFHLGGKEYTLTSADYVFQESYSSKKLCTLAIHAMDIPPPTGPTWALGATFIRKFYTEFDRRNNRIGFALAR
Assay: Radioimmunoassay screen for renin inhibitors (angiotensin I generation, then quantitation by radioimmunoassay)
Assay type: biochemical
Conditions: for pIC50: human kidney renin, purified human plasma angiotensinogen, maleate buffer pH 6.0, 1 hour at 37° C., read-out: IC50 Molar Concentration
Procedure: Radioimmunoassay Screen For Renin Inhibitors
The in vitro method for the screening of anti-renin compounds involves, first, angiotensin I generation, and second, the quantitation of the angiotensin I produced by radioimmunoassay.
The incubation medium consisted of 20 μl of purified human plasma angiotensinogen (1); 40 μl of human kidney renin (2); 5 μl of phenylmethylsulfonyl fluoride; 10 μl of disodium EDTA (10 mM); 10 μl of antirenin compound (5×10^-3, 5×10^-4, 5×10^-5) in dimethylformamide, or ethanol and a suitable amount of maleate buffer (77mM, pH 6.0) to make a final volume of 500 μl. The reaction mixture was incubated for 1 hour at 37° C. and the enzymatic reaction was stopped by placing the tube in ice-cold water. The angiotension I generated during the incubation was measured by a radioimmunoassay plasma renin activity kit (Clinical Assays, Inc.).
Radioimmunoassay Procedure
The incubation medium consisted of either 100 μl aliquots of the above reaction mixture or a standard amount of angiotensin I; 1000 μl of phosphate buffer (100 mM, pH7.6) and 100 μl of (^125 I)angiotensin in a gamma-coat, tube. After three hours of incubation at room temperature, the tubes were decanted, and the radioactivity of each tube was determined in a gamma counter. Duplicate determinations were performed for each incubation. The results were expressed in ng of angiotensin I generated per ml of generation medium per hour of incubation (ng/AI/ml/hr), and the % of inhibition was obtained by the following: % inhibition= [formula]
The results of this test on representative compounds of this invention appear in Table I, expressed as an IC50.
(1) The human plasma angiotensinogen derived from the blood of a person receiving oral contraceptive pills was purified by chromatography on a pepstatin-aminohexyl-agarose column.
(2) Human renin was prepared from human kidney.

pIC50 | SMILES | also measured
7.06 | CC(C)COC(NC(=O)[C@H](Cc1ccccc1)NC(=O)OCc1ccccc1)C(=O)N[C@@H](CC1CCCCC1)[C@@H](O)c1nccs1 (stereo partly drawn) [N-[(Phenylmethoxy)carbonyl]-phenylalanyl-L-2-(2-methylpropox] [N-[(Phenylmethoxy)carbonyl]-L-phenylalanyl-L-2-(2-methylpropoxy)glycyl]-(1R,2S)-2-amino-3-cyclohexyl-1-(2-thiazolyl)propan-1-ol] | –
6.55 | CC(C)C[C@H](NC(=O)C(NC(=O)[C@H](Cc1ccccc1)NC(=O)OCc1ccccc1)OC(C)C)[C@@H](O)c1nccs1 (stereo partly drawn) [N-[N-(Benzyloxycarbonyl)-L-phenylalanyl-L-2-(1-methylethoxy)glycyl]-(S)2-amino-4-methyl-(R)1-(2-thiazolyl)pentan-1-ol] | –
6.33 | CC(C)CO[C@H](NC(=O)[C@H](Cc1ccccc1)NC(=O)OCc1ccccc1)C(=O)N[C@@H](Cc1ccccc1)[C@@H](O)c1nccs1 [N-[N-(Benzyloxycarbonyl)-L-phenylalanyl-L-2-(2-methylpropxy)glycyl]-(S)2-amino-3-phenyl-(R)1-(2-thiazolyl)propan-1-ol] | % Renin Inhibition (Molar Concentration 1 × 10^-4): 85.0%; % Renin Inhibition (Molar Concentration 1 × 10^-5): 84.6%; % Renin Inhibition (Molar Concentration 1 × 10^-6): 76.2%
5.07 | CC(C)C[C@H](NC(=O)C(NC(=O)[C@H](Cc1ccccc1)NC(=O)OCc1ccccc1)OC1CCCCC1)[C@@H](O)c1nccs1 (stereo partly drawn) [N-[N-(Benzyloxycarbonyl)-L-phenylalanyl-L-2-(cyclohexyloxy)glycyl]-(S)2-amino-4-methyl-(R)1-(2-thiazolyl)pentan-1-ol] | –
5.06 | CC(C)OC(NC(=O)[C@H](Cc1ccccc1)NC(=O)OCc1ccccc1)C(=O)N[C@@H](CC1CCCCC1)[C@@H](O)c1nccs1 (stereo partly drawn) [N-[N-(Phenylmethoxy)carbonyl-L-phenylalanyl-D-2-(1-methyleth] [N-[N-[(phenylmethoxy)carbonyl-L-phenylalanyl-D-2-(1-methylethoxy)glycyl](S)2-amino-3-cyclohexyl-(R)1-(2-thiazolyl)propan-1-ol] | –
9.00 | CC(C)OC(NC(=O)[C@H](Cc1ccccc1)NC(=O)OCc1ccccc1)C(=O)N[C@@H](CC1CCCCC1)[C@@H](O)c1nccs1 (stereo partly drawn) [N-[N-(Phenylmethoxy)carbonyl-L-phenylalanyl-L-2-(1-methyleth] [N-[N-[(Phenylmethoxy)carbonyl-L-phenylalanyl-L-2-(1-methylethoxy)glycyl]-(S)2-amino-b 3-cyclohexyl-(R)1-(2-thiazolyl)propan-1-ol] | –
4.85 | CC(C)C[C@H](NC(=O)C(NC(=O)[C@H](Cc1ccccc1)NC(=O)OCc1ccccc1)SC(C)C)[C@@H](O)c1nccs1 (stereo partly drawn) [N-[N-[(Phenylmethoxy)carbonyl-L-phenylalanyl-L-2-(isopropylthio)glycyl]-(S)2-amino-4-methyl-(R)1-(2-thiazaolyl)pentan-1-ol] | –
4.96 | CC(C)COC(NC(=O)[C@H](Cc1ccccc1)NC(=O)OCc1ccccc1)C(=O)N[C@@H](CC1CCCCC1)[C@@H](O)c1nccs1 (stereo partly drawn) [N-[Phenylmethoxy)carbonyl]-L-phenylalanyl-D-2-(2-methylpropo] [N-[(Phenylmethoxy)carbonyl]-L-phenylalanyl-D 2-(2-methylpropoxy)glycyl-(1R,2S)-2-amino-3-cyclohexyl-1-(2-thiazolyl)propan-1-ol] | –

Further lines, the compound ahead of its results:

SMILES | pIC50 | also measured
CC(C)C[C@@H](C=O)NC(=O)C(NC(=O)[C@H](Cc1ccccc1)NC(=O)OCc1ccccc1)OC(C)C (stereo partly drawn) [N-[(Phenylmethoxy)carbonyl]-L-phenylalanyl-N-(S)-1-formyl-3-methylbutyl]-L-2-(1-methylethoxy)glycinamide] | 5.00 | –
CC(C)COC(NC(=O)[C@H](Cc1ccccc1)NC(=O)OCc1ccccc1)C(=O)N[C@H](C=O)Cc1ccccc1 (stereo partly drawn) [N-[(Phenylmethoxy)carbonyl]-L-phenylalanyl-N-[(S)-1-formyl-2-phenylethyl]-L-2-(2-methylpropoxy)glycinamide] | – | % Renin Inhibition (Molar Concentration 1 × 10^-4): 66%; % Renin Inhibition (Molar Concentration 1 × 10^-5): 59%
CC(C)CO[C@H](NC(=O)[C@H](Cc1ccccc1)NC(=O)OCc1ccccc1)C(=O)N[C@H](C=O)CC(C)C [N-[(Phenylmethoxy)carbonyl]-L-phenylalanyl-N-[(S)-1-formyl-3-methylbutyl]-L-2-(2-methylpropoxy)glycinamide] | – | % Renin Inhibition (Molar Concentration 1 × 10^-4): 70%; % Renin Inhibition (Molar Concentration 1 × 10^-5): 50%
CC(C)CO[C@@H](NC(=O)[C@H](Cc1ccccc1)NC(=O)OCc1ccccc1)C(=O)N[C@@H](Cc1ccccc1)[C@@H](O)c1nccs1 [N-[N-(Benzyloxycarbonyl)-L-phenylalanyl-D-2-(2-methylpropoxy)glycyl]-(S)2-amino-3-phenyl-(R)1-(2-thiazoly)propan-1-ol] | – | % Renin Inhibition (Molar Concentration 1 × 10^-4): 74.6%; % Renin Inhibition (Molar Concentration 1 × 10^-5): 69.2%; % Renin Inhibition (Molar Concentration 1 × 10^-6): 41.0%
CC(C)COC(NC(=O)[C@H](Cc1ccccc1)NC(=O)OCc1ccccc1)C(=O)N[C@@H](CC(C)C)[C@@H](O)c1ncnn1C (stereo partly drawn) [N-[N-(Benzyloxycarbonyl)-L-phenylalanyl-L-2-(2-methylpropoxy)glycl]-(S)2-amino-4-methyl(R)1-(1-methyl-1H-1,2,4-triazol-5-yl)pentan-1-ol] | – | % Renin Inhibition (Molar Concentration 1 × 10^-4): 32%
CC(C)COC(NC(=O)OCc1ccccc1)C(=O)N[C@@H](CC1CCCCC1)[C@@H](O)c1ccccn1 (stereo partly drawn) [N-[N-(Phenylmethoxy)carbonyl-L-2-(2-methylpropoxy)glycyl]-(S)2-amino-3-cyclohexyl(R)1-(2-pyridinyl)propan-1-ol] | 6.80 | –
CC(C)CO[C@@H](NC(=O)[C@H](Cc1ccccc1)NC(=O)OCc1ccccc1)C(=O)N[C@@H](CC1CCCCC1)[C@@H](O)c1ccccn1 [N-[N-(Phenylmethoxy)carbonyl-L-phenylalanyl-D-2-(2-methylpropoxy)glycyl]-(S)2-amino-3-cyclohexyl(R)1-(2-pyridinyl)propan-1-ol] | 4.54 | –
CC(C)SC(NC(=O)[C@H](Cc1ccccc1)NC(=O)OCc1ccccc1)C(=O)N[C@@H](CC1CCCCC1)[C@@H](O)c1ccccn1 (stereo partly drawn) [N-[N-(Phenylmethoxy)carbonyl-L-phenylalanyl-L-2-(isopropylth] [N-[N-[(Phenylmethoxy)carbonyl]-L-phenylalanyl-L-2-(isopropylthio)glycyl]-(S)2-amino-3-cyclohexyl-(R)1-(2-pyridinyl)propan-1-ol] | 7.34 | –
CC(C)SC(NC(=O)[C@H](Cc1ccccc1)NC(=O)OCc1ccccc1)C(=O)N[C@@H](CC1CCCCC1)[C@@H](O)c1ccccn1 (stereo partly drawn) [N-[N-(phenylmethoxy)carbonyl-L-phenylalanyl-D-2-(isopropylth] [N-[N[(phenylmethoxy)carbonyl]-L-phenylalanyl-D-2-(isopropylthio)glycyl]-(S)2-amino-3-cyclohexyl-(R)1-(2-pyridinyl)-propan-1-ol] | 4.80 | –
CC(C)C[C@H](NC(=O)[C@H](Cc1ccccc1)NC(=O)OC(C)(C)C)C(=O)N[C@@H](CC(C)C)[C@@H](O)c1cccs1 [N-[N-(tert-Butoxycarbonyl)-L-phenylalanyl-L-leucyl]-(S)2-amino-4-methyl-(R)1-(2-thienyl)-pentan-1-ol] | 5.35 | –
CC(C)OC(NC(=O)[C@H](Cc1ccccc1)NC(=O)OCc1ccccc1)C(=O)N[C@@H](CC1CCCCC1)[C@@H](O)c1ccccn1 (stereo partly drawn) [N-[N-[ (Phenylmethoxy)carbonyl]-L-phenylalanyl-L-2-(1-methylethoxy)glycyl]-(S)2-amino-3-cyclohexyl-(R)1-(2-pyridinyl)propan-1-ol] | 7.62 | –
CC(C)O[C@@H](NC(=O)[C@H](Cc1ccccc1)NC(=O)OCc1ccccc1)C(=O)N[C@@H](CC1CCCCC1)[C@@H](O)c1ccccn1 [N-[N-[(Phenylmethoxy)carbonyl]-L-phenylalanyl-D-2-(1-methylethoxy)glycyl]-(S)2-amino-3-cyclohexyl-(R)1-(2-pyridinyl)propan-1-ol] | 6.00 | –
CC(C)C[C@H](NC(=O)C(NC(=O)[C@H](Cc1ccccc1)NC(=O)OCc1ccccc1)SC(C)C)[C@@H](O)c1nccs1 (stereo partly drawn) [N-[N-[(phenylmethoxy)carbonyl]-L-phenylalanyl-D-2-(isopropylthio)glycyl]-(S)2-amino-4-methyl-(R)1-(2-thiazolyl)pentan-1-ol] | – | % Renin Inhibition (Molar Concentration 1 × 10^-4): 25%
CC(C)C[C@H](NC(=O)[C@H](Cc1ccccc1)NC(=O)OC(C)(C)C)C(=O)N[C@@H](CC1CCCCC1)[C@@H](O)c1ccco1 [N-[N-tert-Butoxycarbonyl)-L-phenylalanyl-L-leucyl]-(S)2-amino-3-cyclohexyl-(R)1-(2-furanyl)propan-1-ol] | 7.62 | –
